Experimental data taken from article PMC5053573, “Structure-Based Design of Tetrahydroisoquinoline-7-carboxamides as Selective Discoidin Domain Receptor 1 (DDR1) Inhibitors” (Journal of Medicinal Chemistry, 2016).

Columns and labels:
Experiment in all cases: biochemical
Settings in all cases: read-out: %Ctrl @ 1000nM
LIMK2 = LIMK2 (Homo sapiens, UniProt P53671)
CSNK1G2 = CSNK1G2 (Homo sapiens, UniProt P78368)
CSNK1E = CSNK1E (Homo sapiens, UniProt P49674)
BMPR2 = BMPR2 (Homo sapiens, UniProt Q13873)
FLT3(D835H) = FLT3(D835H) (Homo sapiens, UniProt P36888, D835H)
CSNK1A1 = CSNK1A1 (Homo sapiens, UniProt P48729)
HCK = HCK (Homo sapiens, UniProt P08631)
SGK2 = SGK2 (Homo sapiens, UniProt Q9HBY8)
p38-delta = target: T1, p38-delta (Homo sapiens, UniProt O15264)
T1 construct: gene MAPK13

[1] = target: ABL1(F317L)-phosphorylated (Homo sapiens, UniProt P00519, F317L)
EPHB3 = EPHB3 (Homo sapiens, UniProt P54753)
ICK = target: T2, ICK (Homo sapiens, UniProt Q9UPZ9)
T2 construct: gene CILK1

SRC = SRC (Homo sapiens, UniProt P12931)
ABL1-nonphosphorylated = ABL1-nonphosphorylated (Homo sapiens, UniProt P00519)
ABL1-phosphorylated = ABL1-phosphorylated (Homo sapiens, UniProt P00519)
CAMK1 = CAMK1 (Homo sapiens, UniProt Q14012)
RET(V804M) = RET(V804M) (Homo sapiens, UniProt P07949, V804M)
[2] = target: T3, RSK4(Kin.Dom.2-C-terminal) (Homo sapiens, UniProt Q9UK32)
T3 construct: gene RPS6KA6

[3] = target: RPS6KA5(Kin.Dom.1-N-terminal) (Homo sapiens, UniProt O75582)
BRK = target: T4, BRK (Homo sapiens, UniProt Q13882)
T4 construct: gene PTK6

MARK4 = MARK4 (Homo sapiens, UniProt Q96L34)
MKNK2 = MKNK2 (Homo sapiens, UniProt Q9HBH9)
MAP4K5 = MAP4K5 (Homo sapiens, UniProt Q9Y4K4)
LRRK2(G2019S) = LRRK2(G2019S) (Homo sapiens, UniProt Q5S007, G2019S)
NIK = target: T5, NIK (Homo sapiens, UniProt Q99558)
T5 construct: gene MAP3K14

PIK3CA(C420R) = PIK3CA(C420R) (Homo sapiens, UniProt P42336, C420R)
FYN = FYN (Homo sapiens, UniProt P06241)
IRAK4 = IRAK4 (Homo sapiens, UniProt Q9NWZ3)
NIM1 = target: T6, NIM1 (Homo sapiens, UniProt Q8IY84)
T6 construct: gene NIM1K

MST3 = target: T7, MST3 (Homo sapiens, UniProt Q9Y6E0)
T7 construct: gene STK24

MRCKA = target: T8, MRCKA (Homo sapiens, UniProt Q5VT25)
T8 construct: gene CDC42BPA

[4] = target: JAK1(JH1domain-catalytic) (Homo sapiens, UniProt P23458)
FLT3(K663Q) = FLT3(K663Q) (Homo sapiens, UniProt P36888, K663Q)
EPHB2 = EPHB2 (Homo sapiens, UniProt P29323)
RIOK3 = RIOK3 (Homo sapiens, UniProt O14730)
Sequence of RIOK3 (O14730 whole entry): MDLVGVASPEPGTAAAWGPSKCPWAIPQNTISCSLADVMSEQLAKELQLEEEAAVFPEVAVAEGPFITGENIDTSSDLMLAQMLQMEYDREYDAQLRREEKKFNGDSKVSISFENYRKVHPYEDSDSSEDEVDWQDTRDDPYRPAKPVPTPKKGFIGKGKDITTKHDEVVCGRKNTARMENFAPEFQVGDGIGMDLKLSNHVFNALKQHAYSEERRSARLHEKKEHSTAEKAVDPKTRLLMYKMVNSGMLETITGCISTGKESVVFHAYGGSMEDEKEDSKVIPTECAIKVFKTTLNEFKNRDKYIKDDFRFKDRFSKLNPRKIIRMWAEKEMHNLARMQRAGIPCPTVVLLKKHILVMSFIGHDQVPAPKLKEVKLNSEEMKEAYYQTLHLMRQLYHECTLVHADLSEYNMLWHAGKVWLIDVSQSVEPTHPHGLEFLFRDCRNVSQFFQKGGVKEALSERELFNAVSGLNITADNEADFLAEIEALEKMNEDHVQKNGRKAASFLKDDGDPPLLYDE

Sequence of EPHB2 (P29323 whole entry): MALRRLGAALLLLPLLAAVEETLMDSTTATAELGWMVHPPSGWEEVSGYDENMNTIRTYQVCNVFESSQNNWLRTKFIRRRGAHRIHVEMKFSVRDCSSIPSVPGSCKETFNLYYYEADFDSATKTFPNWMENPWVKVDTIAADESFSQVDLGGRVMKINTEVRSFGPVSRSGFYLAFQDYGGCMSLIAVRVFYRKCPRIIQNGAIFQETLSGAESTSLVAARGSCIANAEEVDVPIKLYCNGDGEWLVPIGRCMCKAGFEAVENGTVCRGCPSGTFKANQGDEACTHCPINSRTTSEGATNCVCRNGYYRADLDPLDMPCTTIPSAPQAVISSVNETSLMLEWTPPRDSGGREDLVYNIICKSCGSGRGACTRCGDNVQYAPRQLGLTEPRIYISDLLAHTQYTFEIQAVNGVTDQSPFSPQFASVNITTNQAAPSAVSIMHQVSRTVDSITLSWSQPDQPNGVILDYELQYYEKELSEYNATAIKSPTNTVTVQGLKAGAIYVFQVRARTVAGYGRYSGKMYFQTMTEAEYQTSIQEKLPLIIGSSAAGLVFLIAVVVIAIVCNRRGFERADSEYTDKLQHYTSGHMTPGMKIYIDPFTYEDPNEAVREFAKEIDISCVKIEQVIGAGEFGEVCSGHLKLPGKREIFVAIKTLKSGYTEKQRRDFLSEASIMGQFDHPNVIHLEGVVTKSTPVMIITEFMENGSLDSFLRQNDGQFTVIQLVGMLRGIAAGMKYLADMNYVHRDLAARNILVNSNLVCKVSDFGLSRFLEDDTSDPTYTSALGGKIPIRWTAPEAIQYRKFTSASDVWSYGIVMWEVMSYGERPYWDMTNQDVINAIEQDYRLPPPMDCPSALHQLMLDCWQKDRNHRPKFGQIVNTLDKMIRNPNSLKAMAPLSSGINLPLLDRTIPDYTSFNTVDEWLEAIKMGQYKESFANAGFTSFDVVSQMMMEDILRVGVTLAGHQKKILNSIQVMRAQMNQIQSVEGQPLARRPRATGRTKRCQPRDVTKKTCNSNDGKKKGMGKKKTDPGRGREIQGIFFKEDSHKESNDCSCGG
Sequence of HCK (P08631 whole entry): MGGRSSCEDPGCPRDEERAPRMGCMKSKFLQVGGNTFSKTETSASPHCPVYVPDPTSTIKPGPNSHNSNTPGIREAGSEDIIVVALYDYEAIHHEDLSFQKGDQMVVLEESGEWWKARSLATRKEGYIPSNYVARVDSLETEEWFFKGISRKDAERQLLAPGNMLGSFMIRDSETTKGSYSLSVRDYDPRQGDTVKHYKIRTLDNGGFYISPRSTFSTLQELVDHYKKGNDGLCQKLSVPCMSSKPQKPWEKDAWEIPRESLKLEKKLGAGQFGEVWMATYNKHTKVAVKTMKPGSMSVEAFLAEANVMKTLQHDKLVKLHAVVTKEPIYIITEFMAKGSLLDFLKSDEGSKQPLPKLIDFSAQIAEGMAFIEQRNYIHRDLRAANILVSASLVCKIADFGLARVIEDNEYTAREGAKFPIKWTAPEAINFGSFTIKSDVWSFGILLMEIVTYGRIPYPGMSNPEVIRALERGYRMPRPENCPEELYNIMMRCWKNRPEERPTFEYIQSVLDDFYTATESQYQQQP
T7 sequence (Q9Y6E0 whole entry): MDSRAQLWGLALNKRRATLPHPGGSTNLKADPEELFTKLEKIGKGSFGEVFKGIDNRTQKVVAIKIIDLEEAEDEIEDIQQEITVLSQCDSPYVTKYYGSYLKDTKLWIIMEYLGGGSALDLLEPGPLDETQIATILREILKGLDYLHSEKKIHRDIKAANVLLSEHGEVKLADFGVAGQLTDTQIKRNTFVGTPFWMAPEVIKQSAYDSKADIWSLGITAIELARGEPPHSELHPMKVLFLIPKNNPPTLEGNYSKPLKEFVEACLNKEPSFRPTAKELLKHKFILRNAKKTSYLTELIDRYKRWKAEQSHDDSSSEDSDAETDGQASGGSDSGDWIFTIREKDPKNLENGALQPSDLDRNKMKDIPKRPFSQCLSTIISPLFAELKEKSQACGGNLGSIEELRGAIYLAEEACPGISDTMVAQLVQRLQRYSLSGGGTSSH
Sequence of RPS6KA5(Kin.Dom.1-N-terminal) (O75582 whole entry): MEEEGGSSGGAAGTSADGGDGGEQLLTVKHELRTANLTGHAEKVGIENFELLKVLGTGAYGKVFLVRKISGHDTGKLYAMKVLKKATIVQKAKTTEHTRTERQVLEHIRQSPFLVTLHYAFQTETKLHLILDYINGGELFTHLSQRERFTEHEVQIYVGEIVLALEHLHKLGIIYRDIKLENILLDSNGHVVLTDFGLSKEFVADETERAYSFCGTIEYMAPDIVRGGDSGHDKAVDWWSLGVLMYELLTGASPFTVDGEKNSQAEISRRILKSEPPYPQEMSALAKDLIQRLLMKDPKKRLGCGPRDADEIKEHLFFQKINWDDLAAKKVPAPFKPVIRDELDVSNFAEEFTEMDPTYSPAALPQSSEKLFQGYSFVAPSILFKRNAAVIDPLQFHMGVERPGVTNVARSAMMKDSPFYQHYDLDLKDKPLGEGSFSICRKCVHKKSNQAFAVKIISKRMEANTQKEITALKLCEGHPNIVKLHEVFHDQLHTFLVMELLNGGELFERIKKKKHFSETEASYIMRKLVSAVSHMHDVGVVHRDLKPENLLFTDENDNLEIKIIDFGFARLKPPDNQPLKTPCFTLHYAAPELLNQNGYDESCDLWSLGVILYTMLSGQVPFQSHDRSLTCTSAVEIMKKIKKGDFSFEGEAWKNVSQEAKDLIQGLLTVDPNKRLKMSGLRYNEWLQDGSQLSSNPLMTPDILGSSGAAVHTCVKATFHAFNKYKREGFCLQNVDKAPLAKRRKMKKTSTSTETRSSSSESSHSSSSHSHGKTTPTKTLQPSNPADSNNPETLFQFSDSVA
Sequence of CSNK1G2 (P78368 whole entry): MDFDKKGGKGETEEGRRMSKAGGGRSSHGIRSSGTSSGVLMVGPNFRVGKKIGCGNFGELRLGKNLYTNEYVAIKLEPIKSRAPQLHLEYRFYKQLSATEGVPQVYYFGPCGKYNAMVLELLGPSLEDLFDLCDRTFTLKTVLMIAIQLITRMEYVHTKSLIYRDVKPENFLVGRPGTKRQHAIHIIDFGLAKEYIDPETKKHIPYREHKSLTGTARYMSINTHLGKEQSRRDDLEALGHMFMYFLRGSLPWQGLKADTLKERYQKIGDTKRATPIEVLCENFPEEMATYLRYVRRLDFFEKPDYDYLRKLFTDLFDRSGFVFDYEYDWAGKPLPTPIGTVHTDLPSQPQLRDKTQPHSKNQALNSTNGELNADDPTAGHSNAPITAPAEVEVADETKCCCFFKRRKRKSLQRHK
Sequence of SRC (P12931 whole entry): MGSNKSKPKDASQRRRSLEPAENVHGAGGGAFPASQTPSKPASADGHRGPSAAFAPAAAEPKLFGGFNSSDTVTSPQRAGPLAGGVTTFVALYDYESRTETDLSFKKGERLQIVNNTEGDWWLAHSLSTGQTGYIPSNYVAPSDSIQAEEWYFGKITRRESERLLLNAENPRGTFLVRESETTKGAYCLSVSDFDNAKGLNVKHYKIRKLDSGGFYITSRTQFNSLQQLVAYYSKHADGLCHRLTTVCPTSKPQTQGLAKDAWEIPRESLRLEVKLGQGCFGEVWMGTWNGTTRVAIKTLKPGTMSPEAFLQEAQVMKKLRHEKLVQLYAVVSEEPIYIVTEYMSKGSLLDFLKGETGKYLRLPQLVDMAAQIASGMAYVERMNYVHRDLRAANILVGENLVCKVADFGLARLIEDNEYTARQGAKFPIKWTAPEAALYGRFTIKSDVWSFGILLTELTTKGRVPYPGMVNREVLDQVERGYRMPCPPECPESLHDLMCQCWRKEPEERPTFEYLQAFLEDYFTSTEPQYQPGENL
T4 sequence (Q13882 whole entry): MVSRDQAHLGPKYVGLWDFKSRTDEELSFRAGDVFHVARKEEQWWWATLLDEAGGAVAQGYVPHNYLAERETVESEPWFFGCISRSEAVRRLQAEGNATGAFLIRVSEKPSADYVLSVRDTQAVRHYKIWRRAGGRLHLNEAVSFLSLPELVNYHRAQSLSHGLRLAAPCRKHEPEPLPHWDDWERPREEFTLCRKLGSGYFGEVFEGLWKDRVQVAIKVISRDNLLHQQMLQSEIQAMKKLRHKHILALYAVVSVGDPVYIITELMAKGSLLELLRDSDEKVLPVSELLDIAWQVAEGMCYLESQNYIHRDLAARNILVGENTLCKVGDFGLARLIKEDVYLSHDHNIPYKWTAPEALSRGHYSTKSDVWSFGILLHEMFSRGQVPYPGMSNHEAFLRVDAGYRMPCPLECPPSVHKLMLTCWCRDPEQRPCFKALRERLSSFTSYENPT

remaining activity at 1 µM (LIMK2): 100%
remaining activity at 1 µM (CSNK1G2): 92%
remaining activity at 1 µM (CSNK1E): 86%
remaining activity at 1 µM (BMPR2): 100%
remaining activity at 1 µM (FLT3(D835H)): 59%
remaining activity at 1 µM (CSNK1A1): 57%
remaining activity at 1 µM (HCK): 86%
remaining activity at 1 µM (SGK2): 100%
remaining activity at 1 µM (p38-delta): 70%
remaining activity at 1 µM [1]: 74%
remaining activity at 1 µM (EPHB3): 82%
remaining activity at 1 µM (ICK): 100%
remaining activity at 1 µM (SRC): 94%
remaining activity at 1 µM (ABL1-nonphosphorylated): 13%
remaining activity at 1 µM (ABL1-phosphorylated): 80%
remaining activity at 1 µM (CAMK1): 84%
remaining activity at 1 µM (RET(V804M)): 100%
remaining activity at 1 µM [2]: 74%
remaining activity at 1 µM [3]: 97%
remaining activity at 1 µM (BRK): 84%
remaining activity at 1 µM (MARK4): 100%
remaining activity at 1 µM (MKNK2): 100%
remaining activity at 1 µM (MAP4K5): 95%
remaining activity at 1 µM (LRRK2(G2019S)): 100%
remaining activity at 1 µM (NIK): 100%
remaining activity at 1 µM (PIK3CA(C420R)): 97%
remaining activity at 1 µM (FYN): 69%
remaining activity at 1 µM (IRAK4): 100%
remaining activity at 1 µM (NIM1): 100%
remaining activity at 1 µM (MST3): 64%
remaining activity at 1 µM (MRCKA): 93%
remaining activity at 1 µM [4]: 100%
remaining activity at 1 µM (FLT3(K663Q)): 62%
remaining activity at 1 µM (EPHB2): 85%
remaining activity at 1 µM (RIOK3): 100%
Compound: Cc1cn(-c2cc(NC(=O)c3ccc4c(c3)CN(c3cncnc3)C[C@@H]4C)cc(C(F)(F)F)c2)cn1 [Compound 6j]
